These results are taken from patent publication US20230317203A1, “SCREENING METHOD” (University of Leeds, priority 2022, published 2023).

SMILES strings stand for the structures.

The target of assay [1] is BRISC (Homo sapiens, UniProt P46736+Q15018+Q9NXR7). Briefly: IQF K63-linked diUb DUB activity assay, BRISC. The settings on record: IQF assay, fluorescent di-ubiquitin substrate, FIG. 1F. The arrangement: made in house; host or cells: Spodoptera frugiperda (Sf9) insect cells. Type of assay: biochemical. The procedure:
(§1) BRISC complexes were tested for activity in DUB reaction buffer containing 50 mM HEPES-NaOH pH 7.0, 100 mM NaCl, 0.1 mg/mL BSA, 1 mM DTT, and 0.003% Brij-35. […] Inhibitors were assayed at concentrations up to 200 μM. 20 μL enzyme reactions were carried out in 384-well black flat-bottom low flange plates (Corning; 35373). DUB activity was measured using internally quenched fluorescent (IQF) K63-linked diUb (Lifesensors, catalogue number: DU6303) at 50 or 100 nM. Cleaved diUb was monitored by measuring fluorescence intensity (Ex. 540 nm, Em. 580 nm; dichroic mirror 560 nm). Fluorescence intensity was measured every minute for 30 minutes at 30° C. Fluorescence intensity units for the first 10 minutes were plotted against time to generate a linear reaction progress curve, where the initial velocity (v0) corresponds to the gradient of the curve. IC50 values were calculated using the GraphPad Prism (v8.0) built-in dose-response equation for inhibitor concentration vs. response (variable slope).
A high throughput biochemical screen was designed to identify inhibitors of BRISC, based on the ability of small molecules to inhibit BRISC cleavage of a K63-linked di-ubiquitin substrate. The di-ubiquitin substrate is designed with a fluorescent TAMRA dye on the proximal ubiquitin moiety and fluorescence quencher on the distal ubiquitin molecule (FIG. 1A). Upon isopeptidase bond cleavage, fluorescence is detected, enabling continuous fluorescent readout of deubiquitylase activity over time (FIG. 1A). The assay conditions were optimised and used to test an in-house compound library comprising of ˜300 published and custom-made kinase inhibitors. From this screen, two hits were identified, compounds AT7519 (well H20) and YM201636 (well P12) (FIG. 1B). The specificity of these compounds was assessed against the broad-spectrum DUB ubiquitin-specific protease-2 (USP2) and the serine protease trypsin which cleave K63-Ub substrate under the same conditions. […] UV-Vis spectroscopy analyses of the compound in well H20 used in the screen compared to the Synkinase and Sellechem AT7519 compounds identified an additional peak in the H20 spectra (FIG. 5C). […] The synthesis of the two isomers was confirmed using mass spectrometry fragmentation analyses (FIG. 5E) and the inhibitory effect of the isomers was tested against BRISC.

The target in assay [2] is T1, BRISC(FL) (Homo sapiens, UniProt P46736+Q15018+Q9NXR7).
T1 construct: The four-subunit human BRISC (full-length (FL) and MERIT40ΔN, Abraxas2ΔC) complex was cloned; made in house; host or cells: Spodoptera frugiperda (Sf9) insect cells
Briefly: Native mass spectrometry of BRISC with inhibitor. The settings on record: 10 μM BRISC(FL), 1 mM inhibitor. Type of assay: binding. The procedure: Samples were buffer exchanged into 500 mM ammonium acetate using Zeba Spin 7K MWCO desalting columns (ThermoFisher). Gold and palladium coated nanospray tips were prepared in-house and mounted on the nano-electrospray ionisation source. Mass spectra were acquired on a Q Exactive Ultra-High Mass Range Hybrid Quadrupole-Orbitrap mass spectrometer (Thermo Fisher), optimised for mass resolution at high m/z ratios. Data were visualised and processed using Mass Lynx (v4.1) and UniDec (v2.7.1).

In assay [3] the target is BRISC Abraxas2 Ile133Trp (Homo sapiens, UniProt P46736+Q15018+Q9NXR7, I133W). Briefly: IQF DUB assay, BRISC mutant Abraxas2 Ile133Trp. The conditions noted are these: FIG. 4B. It is filed as biochemical. Here is the method:
(§2) The four-subunit human BRISC (full-length (FL) and MERIT40ΔN, Abraxas2ΔC) complex was cloned using the MultiBac system and co-expressed in Spodoptera frugiperda (Sf9) insect cells^32. BRISC mutants were cloned into pFastBac vectors in the Bac-to-Bac system (ThermoFisher), baculoviruses generated in Sf9 cells and used for co-infection of Trichoplusia ni (Tni) cells. All BRISC complexes were purified as previously described^12,13.
as §1, with “20 μL enzyme reactions were carried out in 384-well black flat-bottom low flange plates (Corning; 35373).” left out, “slope). […]” for “slope).”

Assay [4] deals with BRISC BRCC45 mutants. The assay is described as follows: IQF DUB assay, BRISC BRCC45 mutants. Type of assay: biochemical, human. The conditions noted are these: four BRCC45 residues mutated, FIG. 4B. The procedure: as §2
as §1, with “20 μL enzyme reactions were carried out in 384-well black flat-bottom low flange plates (Corning; 35373).” left out, “slope). […]” for “slope).”

Assay [5] addresses BRISC BRCC36 Trp130Ala (Homo sapiens, UniProt P46736+Q15018+Q9NXR7, W130A). The assay is described as follows: IQF DUB assay, BRISC mutant BRCC36 Trp130Ala. Type of assay: biochemical. The settings on record: FIG. 4B. Here is the method:
as §2
as §1, with “20 μL enzyme reactions were carried out in 384-well black flat-bottom low flange plates (Corning; 35373).” left out, “slope). […]” for “slope).”

The target in assay [6] is BRISC Abraxas2 Thr140Ala (Homo sapiens, UniProt P46736+Q15018+Q9NXR7, T140A). The assay is described as follows: IQF DUB assay, BRISC mutant Abraxas2 Thr140Ala. The conditions noted are these: FIG. 4B. It is filed as biochemical. The procedure: as §2
as §1, with “20 μL enzyme reactions were carried out in 384-well black flat-bottom low flange plates (Corning; 35373).” left out, “slope). […]” for “slope).”

Consider `O=C(NC1C2CNCC21)c1nn(C(=O)c2c(Cl)cccc2Cl)cc1NC(=O)c1c(Cl)cccc1Cl` (stereo not drawn) [FX-171-C], for which, in assay [1], the “IC50 compared to JMS-175-2” value is “slightly improved”. The “BRISC species by native mass spectrometry” value in assay [2] is reported as “BRISC dimers with a MW consistent with a 4:4:4:4 stoichiometry were observed”. The “inhibitor sensitivity of mutant” value in assay [3] is “no effect on inhibitor sensitivity”; in assay [5] it was “severely affected”. In assay [4], the “ability to recognise the inhibitor” value is reported as “reduced”. The “IC50 higher than BRISC WT” value in assay [6] turned out to be 10 fold.
